Laboratory results as given in PMC10673511, “Design, Synthesis and Bioactivity Evaluation of Heterocycle-Containing Mono- and Bisphosphonic Acid Compounds” (Molecules, 2023).
≈ marks a conversion by molar mass, not a printed value. Read-outs that look alike come from different tables or passages of the source.

Tests used:
Echinochloa crus-galli [1] = test: Post-emergence herbicidal inhibition assay, EC; assay type: in vivo; settings: for Loss of Weight (%) EC / Visual Evaluation EC: 300 g ai/ha spray, two weeks after treatment; for Loss of Weight (%) EC: fresh weighing
Procedure: (§1) The post-emergence activity of compounds against EC and Amaranthus retroflexus (AR) was determined at a dose of 300 g ai/ha. The model plants initially grow as seedlings, and a few days prior to treatment, five seedlings with similar growth conditions for the plant were transplanted into one pot containing nutrient soil. The test solutions were prepared by dissolving the compounds in water containing DMF and Tween-80 and sprayed when the plant grew to the 1~2 leaf stage. The herbicidal activity was evaluated via visual observation and fresh weighing after two weeks of treatment.

Arabidopsis thaliana [2] = test: Arabidopsis growth inhibition assay (24-well plates, green channel pixel value); settings: for EC50 / pest or weed control at 100 µg/mL: Arabidopsis thaliana, 240 h; for EC50: read-out: EC50 against Arabidopsis growth; for pest or weed control at 100 µg/mL: read-out: InR (%) against Arabidopsis
Brassica napus L. = test: Pre-emergence herbicidal inhibition assay, Petri dish test, BN; assay type: in vivo; settings: for EC50: Brassica napus, 168 h; for Relative activity ratio (BN root) / Relative activity ratio (BN stalk): relative to FOS
Procedure: (§2) The pre-emergence activity of the compounds against monocot Echinochloa crus-galli (EC) and dicot Brassica napus L. (BN) was evaluated using the standard Petri dish test. The compounds were dissolved in DMF, emulsified with Tween-80 and diluted with water to form stock solutions, each of which was further diluted to a gradient of 100, 50, 25, 10 and 1 mg/L for test. The test solutions were added to Petri dishes lined with a filter paper, on which 10 seeds of EC and BN were placed. After cultured in an intelligent climate chamber with a humidity of 65% at 26 °C for 7 days, the corresponding EC50 values were calculated.

Arabidopsis thaliana [3] = test: DMAPP rescue on Arabidopsis; assay type: in vivo; settings: FOS 40 mg/L; for rescue of developmental arrest and bleaching by DMAPP (change of pixel values): 13e 20 mg/L, t-test
Procedure: The DMAPP rescue on Arabidopsis was conducted using the afore-mentioned culture conditions. […] To one of the two species in each group, an additional 150 μg of DMAPP (Aladdin) was added. After 10 days of cultivation, the green channel pixel values of Arabidopsis in each well were measured. A two-tailed paired Student’s t-test was used to compare the two species within the same group, and p < 0.05 indicates a statistically significant difference.

[4] = biological target: recombinant E. coli DXR (EcDXR) (Escherichia coli, UniProt P45568); test: biochemical; settings: for inhibition at 100 µM: read-out: InR (%) on DXR enzyme
MtDXR = test system: MtDXR; set-up: method as in PMID 21824775; settings: cited from earlier work
Amaranthus retroflexus = test: Post-emergence herbicidal inhibition assay, AR; assay type: in vivo; settings: 300 g ai/ha spray, two weeks after treatment; for Loss of Weight (%) AR: fresh weighing
Procedure: as §1

Echinochloa crus-galli [5] = test: Pre-emergence herbicidal inhibition assay, Petri dish test, EC; assay type: in vivo; settings: for EC50: Echinochloa crus-galli, 168 h; for Relative activity ratio (EC root) / Relative activity ratio (EC stalk): relative to FOS
Procedure: as §2

[6] = root, 7 days, read-out: EC50 BN Root
[7] = stalk, 7 days, read-out: EC50 BN Stalk
[8] = root, 7 days, read-out: EC50 EC Root
[9] = stalk, 7 days, read-out: EC50 EC Stalk

Sequence of recombinant E. coli DXR (EcDXR) (P45568 whole entry): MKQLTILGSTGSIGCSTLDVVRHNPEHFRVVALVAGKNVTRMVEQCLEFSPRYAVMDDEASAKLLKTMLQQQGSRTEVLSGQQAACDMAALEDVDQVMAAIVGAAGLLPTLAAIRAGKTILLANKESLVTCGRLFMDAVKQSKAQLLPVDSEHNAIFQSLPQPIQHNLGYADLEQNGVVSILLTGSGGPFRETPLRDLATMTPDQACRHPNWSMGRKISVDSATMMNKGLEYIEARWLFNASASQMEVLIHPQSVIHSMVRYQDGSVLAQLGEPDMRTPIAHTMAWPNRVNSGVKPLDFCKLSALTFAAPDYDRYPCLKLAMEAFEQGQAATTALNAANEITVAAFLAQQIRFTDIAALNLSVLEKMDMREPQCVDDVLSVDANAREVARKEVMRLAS

For `O=CN(O)CCCP(=O)(O)O` [FOS, Fosmidomycin, reference compound], the “Loss of Weight (%) EC” value (Echinochloa crus-galli [1]) was 27.4%, the “Visual Evaluation EC” value (Echinochloa crus-galli [1]) was “+ (“+”: ≥20%)” and the EC50 (Arabidopsis thaliana [2]) was 27.5 ± 3.1 µg/mL (≈ 150 µM). It also gave a pest or weed control at 100 µg/mL (Arabidopsis thaliana [2]) of 86.8%, an EC50 (Brassica napus L.; [6]) of 34.7 µg/mL (≈ 190 µM) and an EC50 (Brassica napus L.; [7]) of 32.9 µg/mL (≈ 180 µM). The “rescue of developmental arrest and bleaching by DMAPP (change of pixel values)” value (Arabidopsis thaliana [3]; DMAPP 150 mg/L) was “rescued”, the “green channel pixel value of Arabidopsis images, without DMAPP” value (Arabidopsis thaliana [3]; 10 days) was 32,789 and the “green channel pixel value of Arabidopsis images, with DMAPP” value (Arabidopsis thaliana [3]; DMAPP 150 mg/L, 10 days) was 54,164. For the same compound, the inhibition at 100 µM [4] was 98.7%, the IC50 (MtDXR) was 0.08 µM and the “Loss of Weight (%) AR” value (Amaranthus retroflexus) was 31.5%. The “Visual Evaluation AR” value (Amaranthus retroflexus) was “+ (“+”: ≥20%)”, the EC50 (Echinochloa crus-galli [5]; [8]) was 40.2 µg/mL (≈ 220 µM) and the EC50 (Echinochloa crus-galli [5]; [9]) was 38.4 µg/mL (≈ 210 µM).

In the case of `Cc1onc(O)c1CC(P(=O)(O)O)P(=O)(O)O` [Compound 13a], the “Loss of Weight (%) EC” value (Echinochloa crus-galli [1]) is reported as 35.8%, the “Visual Evaluation EC” value (Echinochloa crus-galli [1]) is reported as “+ (“+”: ≥20%)” and the EC50 (Arabidopsis thaliana [2]) is reported as 21.6 ± 3.8 µg/mL (≈ 75.2 µM). It also gave a pest or weed control at 100 µg/mL (Arabidopsis thaliana [2]) of 100%, an EC50 (Brassica napus L.; [6]) of 26.9 µg/mL (≈ 93.7 µM) and an EC50 (Brassica napus L.; [7]) of 8.5 µg/mL (≈ 29.6 µM). For the same compound, the “Relative activity ratio (BN root)” value (Brassica napus L.) was 1.3 fold, the “Relative activity ratio (BN stalk)” value (Brassica napus L.) was 3.9 fold and the IC50 [4] was 77.9 µM. The inhibition at 100 µM [4] was 60.2%, the “Loss of Weight (%) AR” value (Amaranthus retroflexus) was 52.3% and the “Visual Evaluation AR” value (Amaranthus retroflexus) was “++ (“++”: ≥40%)”. For the same compound, the EC50 (Echinochloa crus-galli [5]; [8]) was 27.1 µg/mL (≈ 94.4 µM), the EC50 (Echinochloa crus-galli [5]; [9]) was 10.2 µg/mL (≈ 35.5 µM) and the “Relative activity ratio (EC root)” value (Echinochloa crus-galli [5]) was 1.5 fold. The “Relative activity ratio (EC stalk)” value (Echinochloa crus-galli [5]) was 3.8 fold.

In the case of `Cc1onc(O)c1CCP(=O)(O)O` [Compound 6a], the “Loss of Weight (%) EC” value (Echinochloa crus-galli [1]) is reported as 30.8%, the “Visual Evaluation EC” value (Echinochloa crus-galli [1]) is reported as “+ (“+”: ≥20%)” and the EC50 (Arabidopsis thaliana [2]) is reported as 28.6 ± 3.9 µg/mL (≈ 138 µM). It also gave a pest or weed control at 100 µg/mL (Arabidopsis thaliana [2]) of 90.4%, an EC50 (Brassica napus L.; read-out: EC50 BN Root) of 17.3 µg/mL (≈ 83.5 µM) and an EC50 (Brassica napus L.; read-out: EC50 BN Stalk) of 10.5 µg/mL (≈ 50.7 µM). For the same compound, the “Relative activity ratio (BN root)” value (Brassica napus L.) was 2.0 fold, the “Relative activity ratio (BN stalk)” value (Brassica napus L.) was 3.1 fold and the inhibition at 100 µM [4] was 15.8%. The “Loss of Weight (%) AR” value (Amaranthus retroflexus) was 35.6%, the “Visual Evaluation AR” value (Amaranthus retroflexus) was “+ (“+”: ≥20%)” and the EC50 (Echinochloa crus-galli [5]; read-out: EC50 EC Root) was 24 µg/mL (≈ 116 µM). For the same compound, the EC50 (Echinochloa crus-galli [5]; read-out: EC50 EC Stalk) was 18.9 µg/mL (≈ 91.3 µM), the “Relative activity ratio (EC root)” value (Echinochloa crus-galli [5]) was 1.7 fold and the “Relative activity ratio (EC stalk)” value (Echinochloa crus-galli [5]) was 2.0 fold.

With `O=P(O)(O)C(Cc1c(O)noc1C(F)(F)F)P(=O)(O)O` [Compound 13e] the “Loss of Weight (%) EC” value (Echinochloa crus-galli [1]) was 53.5%, the “Visual Evaluation EC” value (Echinochloa crus-galli [1]) was “++ (“++”: ≥40%)” and the “fold more active than FOS, inhibition rate on EC via fresh weighing” value (Echinochloa crus-galli [1]; post-emergence, 300 g ai/ha) was 1.0 fold. For the same compound, the EC50 (Arabidopsis thaliana [2]) was 7.8 ± 1.2 µg/mL (≈ 22.9 µM), the pest or weed control at 100 µg/mL (Arabidopsis thaliana [2]) was 100% and the “fold inhibitory activity on Arabidopsis relative to FOS” value (Arabidopsis thaliana [2]; from EC50 values) was 3.7 fold. For the same compound, the EC50 (Brassica napus L.; [6]) was 10.7 µg/mL (≈ 31.4 µM), the EC50 (Brassica napus L.; [7]) was 2.3 µg/mL (≈ 6.74 µM) and the “Relative activity ratio (BN root)” value (Brassica napus L.) was 3.2 fold. The “Relative activity ratio (BN stalk)” value (Brassica napus L.) was 14.3 fold, the “rescue of developmental arrest and bleaching by DMAPP (change of pixel values)” value (Arabidopsis thaliana [3]; DMAPP 150 mg/L) was “did not show a significant increase” and the inhibition at 100 µM [4] was 54.9%. The “Loss of Weight (%) AR” value (Amaranthus retroflexus) was 70.3%, the “Visual Evaluation AR” value (Amaranthus retroflexus) was “+++ (“+++”: ≥60%)” and the EC50 (Echinochloa crus-galli [5]; [8]) was 7.4 µg/mL (≈ 21.7 µM). The EC50 (Echinochloa crus-galli [5]; [9]) was 4.1 µg/mL (≈ 12 µM), the “Relative activity ratio (EC root)” value (Echinochloa crus-galli [5]) was 5.4 fold and the “Relative activity ratio (EC stalk)” value (Echinochloa crus-galli [5]) was 9.4 fold.

With `CC(C)c1onc(O)c1CC(P(=O)(O)O)P(=O)(O)O` [Compound 13d] the “Loss of Weight (%) EC” value (Echinochloa crus-galli [1]) was 34.9%, the “Visual Evaluation EC” value (Echinochloa crus-galli [1]) was “+ (“+”: ≥20%)” and the EC50 (Arabidopsis thaliana [2]) was 23.1 ± 1.9 µg/mL (≈ 73.3 µM). The pest or weed control at 100 µg/mL (Arabidopsis thaliana [2]) was 93.2%, the EC50 (Brassica napus L.; [6]) was 25.2 µg/mL (≈ 80 µM) and the EC50 (Brassica napus L.; [7]) was 11 µg/mL (≈ 34.9 µM). The “Relative activity ratio (BN root)” value (Brassica napus L.) was 1.4 fold, the “Relative activity ratio (BN stalk)” value (Brassica napus L.) was 3.0 fold and the inhibition at 100 µM [4] was 14%. The “Loss of Weight (%) AR” value (Amaranthus retroflexus) was 45.7%, the “Visual Evaluation AR” value (Amaranthus retroflexus) was “++ (“++”: ≥40%)” and the EC50 (Echinochloa crus-galli [5]; [8]) was 27.2 µg/mL (≈ 86.3 µM). For the same compound, the EC50 (Echinochloa crus-galli [5]; [9]) was 13.5 µg/mL (≈ 42.8 µM), the “Relative activity ratio (EC root)” value (Echinochloa crus-galli [5]) was 1.5 fold and the “Relative activity ratio (EC stalk)” value (Echinochloa crus-galli [5]) was 2.8 fold.

With `CC1(C)CON(CCCC(P(=O)(O)O)P(=O)(O)O)C1=O` [Compound 20] the “Loss of Weight (%) EC” value (Echinochloa crus-galli [1]) was 22.9%, the “Visual Evaluation EC” value (Echinochloa crus-galli [1]) was “+ (“+”: ≥20%)” and the EC50 (Arabidopsis thaliana [2]) was > 100 µg/mL. It also gave a pest or weed control at 100 µg/mL (Arabidopsis thaliana [2]) of 47.9%, an EC50 (Brassica napus L.; [6]) of 34.6 µg/mL (≈ 104 µM) and an EC50 (Brassica napus L.; [7]) of 8.2 µg/mL (≈ 24.8 µM). The “Relative activity ratio (BN root)” value (Brassica napus L.) was 1.0 fold, the “Relative activity ratio (BN stalk)” value (Brassica napus L.) was 4.0 fold and the inhibition at 100 µM [4] was 29.5%. The melting point was > 250 °C, the “Loss of Weight (%) AR” value (Amaranthus retroflexus) was 23.6% and the “Visual Evaluation AR” value (Amaranthus retroflexus) was “+ (“+”: ≥20%)”. For the same compound, the EC50 (Echinochloa crus-galli [5]; [8]) was 40 µg/mL (≈ 121 µM), the EC50 (Echinochloa crus-galli [5]; [9]) was 25.2 µg/mL (≈ 76.1 µM) and the “Relative activity ratio (EC root)” value (Echinochloa crus-galli [5]) was 1.0 fold. The “Relative activity ratio (EC stalk)” value (Echinochloa crus-galli [5]) was 1.5 fold.
